Measured values reported in patent publication US20210085630A1, “PHARMACEUTICAL COMPOSITION AND USE THEREOF IN PREPARING DRUG FOR TREATING TUMOR MULTI-DRUG RESISTANCE” (SICHUAN JIUZHANG BIOLOGICAL SCIENCE AND TECHNOLOGY CO., LTD., priority 2018, published 2021).

Tests used:
[1] = tested on: drug-resistant A375 melanoma cell lines; test: MTT: non-cytotoxic concentration of test drugs, drug-resistant A375; type: cell-based, human; conditions: 48 h
Description: The culture and treatment methods of cells and drug-resistant cells were the same as above.
For the experiment, there were eight groups: blank group, control group and test-drug groups. […] The plates were placed in an incubator and incubated for 48 h, then 5 mg/ml MTT (20 μl) was added to each well, and the plate was further incubated for 4 h.

[2] = tested on: drug-resistant A375 melanoma cell lines; test: Reversal of dacarbazine resistance in drug-resistant A375 cells (MTT); type: cell-based, human; conditions: test drug 30 μg/ml; for Reversal index: IC50 before reversal/IC50 after reversal, drug-resistant A375
Description: The culture and experimental methods of cells were the same as above.
In the experiment, there are following groups: drug-resistant cell negative group, drug-resistant cells+test drug group 1 (30 μg/ml), drug-resistant cells+test drug group 2 (30 μg/ml), drug-resistant cells+test drug group 3 ([…]), drug-resistant cells+test drug group 4 (30 μg/ml), drug-resistant cells+test drug group 5 (30 μg/ml), drug-resistant cells+test drug group 6 (30 μg/ml).
Each test drug group was added with different concentrations of dacarbazine, each concentration including 3 replicate wells, and the OD value of each well was measured, to observe whether the cytotoxicity was shown. Each test drug and dacarbazine were respectively used to act on drug resistant cells, so as to compare with the effects of dacarbazine administrated alone on drug-resistant cells, and the IC50 value of dacarbazine against drug-resistant cell lines was calculated, as well as the IC50 value of each test drug after reversing drug-resistant cell lines.
Reversal index=IC50 value before reversal/IC50 value after reversal.

[3] = tested on: drug-resistant A549 lung cancer cell lines; test: Reversal of gemcitabine resistance in drug-resistant A549 cells (MTT); type: cell-based, human; conditions: test drug 30 μg/ml; for Reversal index: IC50 before reversal/IC50 after reversal, drug-resistant A549
Description: The culture and experimental methods of cells were the same as above. In the experiment, there are following groups: drug-resistant cell negative group, drug-resistant cells+test drug group 1 (30 μg/ml), drug-resistant cells+test drug group 2 (30 μg/ml), drug-resistant cells+test drug group 3 (30 μg/ml), drug-resistant cells+test drug group 4 (30 μg/ml), drug-resistant cells+test drug group 5 (30 μg/ml), drug-resistant cells+test drug group 6 (30 μg/ml). Each test drug group was respectively added with different concentrations of gemcitabine, each concentration including 3 replicate wells, and the OD value of each well was measured, to observe whether the cytotoxicity was shown. Each test drug and gemcitabine were respectively used to act on drug resistant cells, so as to compare with the effects of gemcitabine administrated alone on drug-resistant cells, and the IC50 value of gemcitabine against drug-resistant cell lines was calculated, as well as the IC50 value of each test drug after reversing drug-resistant cell lines. Reversal index=IC50 value before reversal/IC50 value after reversal.

[4] = tested on: dacarbazine-resistant B16 melanoma; test: Tumor weight and inhibition rate, transplanted dacarbazine-resistant B16 melanoma; type: in vivo; conditions: dacarbazine-resistant B16 melanoma mice; test drug 30 mg/kg i.p. once a day 5 days, then dacarbazine 60 mg/kg every other day; positive drug dacarbazine 60 mg/kg
Description: B16 melanoma cell lines were induced by the increased gradient concentration of dacarbazine, and established by clone screening and cultured without drug before the experiment.
(§1) After the drug was removed from the drug-resistant cell lines, the cell concentration was adjusted to 1×10^7/ml with the culture medium. 1×10^7/ml of cells were subcutaneously injected into the right armpit of mice, 0.1 ml per mouse.
(§2) After the average diameter of tumor reached […], the mice were randomly divided into test drug group 1, test drug group 2, test drug group 3, test drug group 4, test drug group 5, test drug group 6, positive drug group, and negative group, respectively.
(§3) Test drug group: the test drug group was first intraperitoneally injected, once a day, 30 mg/kg/time, for 5 consecutive days; administration was stopped, and the positive drug was given by intraperitoneal injection on the next day; wherein the positive drug dacarbazine was administrated once every other day, 60 mg/kg/time; wherein the positive drug gemcitabine was given once every other day, 300 mg/kg/time.
(§4) Positive drug group: positive drug dacarbazine was given once every other day, 60 mg/kg/time; positive drug gemcitabine was given once every other day, 300 mg/kg/time.
(§5) Negative group: normal saline was intraperitoneally injected, once a day, for 15 consecutive days.
(§6) After completion of administration, the experiment was stopped, and the mice were killed by cervical dislocation and weighed. The tumor was stripped and weighed, to calculate the tumor inhibition rate.

[5] = tested on: CD4+T and CD8+T lymphocytes; test: Number of CD4+T and CD8+T cells (immunofluorescence), drug-resistant Lewis lung cancer transplanted tumor; type: in vivo; conditions: transplanted tumor of drug-resistant Lewis lung cancer in mice, average of 6 high power fields
Description: (§7) The number of CD4+T and CD8+T lymphocytes was analyzed by immunofluorescence staining, and the average number of CD4+T and CD8+T cells infiltrated in 6 high power fields was counted.

[6] = tested on: Opdivo-resistant Lewis lung cancer; test: Antitumor effect (tumor volume, weight, inhibition rate) in Opdivo-resistant Lewis lung cancer mice; type: in vivo; conditions: for Tumor volume (cm^3): 30 mg/kg i.p. once a day, + Opdivo groups: test drug 5 days, then Opdivo 30 mg/kg every other day; for Tumor inhibition rate (%) / Tumor weight: 30 mg/kg i.p., + Opdivo groups 30 + 30 mg/kg
Description: The concentration of cell lines was adjusted to 1×10^7/ml with the culture medium. 1×10^7/ml of cells were subcutaneously injected into the right armpit of mice, 0.1 ml per mouse.
The model mice were randomly divided into groups, eight for one group, and included test drug group 1, test drug group 2, test drug group 3, test drug group 4, positive drug Opdivo group, single drug chlorogenic acid group, test drug 1+Opdivo group, test drug 2+Opdivo group, test drug 3+Opdivo group, test drug 4+Opdivo group, and negative group, respectively.
Test drug group: from the second day after stopping administration to the model, the group received drug by intraperitoneal injection, once a day, 30 mg/kg.
Single drug group: from the second day after stopping administration to the model, the group received drug by intraperitoneal injection, once a day, 30 mg/kg.
Test drug+Opdivo group: from the second day after stopping administration to the model, the group received the test drug by intraperitoneal injection, once a day, and the test drug was stopped after administrating for 5 consecutive days; on the next day, Opdivo was intraperitoneally injected, once every other day, with the dosage of 30 mg/kg.
Positive drug group: once every other day, 30 mg/kg.
Negative group: normal saline was intraperitoneally injected, once a day, the same amount of saline.
Before each administration, the tumor volume was measured, and the experiment was stopped when the average tumor volume of negative group was greater than 1.5 cm^3.
as §6

PD-1/PD-L1 = PD-1/PD-L1 expression rate in tumor tissues of Opdivo-resistant B16 melanoma mice; type: in vivo; conditions: tumor tissues of drug-resistant (Opdivo) B16 melanoma mice
Excerpt: The positive expression rate of PD-1/PD-L1 in tumor tissues was detected by immunohistochemical SP method.

[7] = tested on: multi-drug resistant Lewis lung cancer; test: Tumor weight and inhibition rate, transplanted multi-drug resistant Lewis lung cancer; type: in vivo, mice; conditions: multi-drug resistant Lewis lung cancer mice; test drug 30 mg/kg i.p. 5 days, then gemcitabine 300 mg/kg or dacarbazine 60 mg/kg every other day
Description: Lewis lung cancer cell lines were induced by the increased gradient concentration of dacarbazine and gemcitabine, and established by clone screening, then cultured without drug before the experiment.
as §1, §2, §3, §4, §5, §6

[8] = tested on: CD4+T and CD8+T lymphocytes; test: Number of CD4+T and CD8+T lymphocytes in transplanted tumor of multidrug-resistant Lewis lung cancer mice; type: in vivo; conditions: average of 6 high power fields
Description: as §7

Structure (SMILES) | Non-cytotoxic concentration (all inhibition rates <10%) [1] | Reversal index [2] | reversal effect on the drug-resistant A375 cell lines (in words) [2] | Reversal index [3] | reversal effect on the drug-resistant A549 cell lines (in words) [3] | Tumor inhibition rate (%) [4] | Tumor weight (g) [4] | CD4 + T cells (number) [5] | CD8 + T cells (number) [5] | continuous treatment effect / effect on tumor volume control (in words) [6] | Tumor volume (cm^3) [6] | Tumor inhibition rate (%) [6] | Tumor weight [6] | Expression rate of PD-1/PD-L1, Positive PD-L1 (PD-1/PD-L1) | Tumor weight [7] | Tumor-inhibition rate (%) [7] | CD4 + T cells (number) [8] | CD8 + T cells (number) [8] | Tumor weight [4]
O=C(/C=C/c1ccc(O)c(O)c1)O[C@@H]1C[C@](O)(C(=O)O)C[C@@H](O)[C@H]1O [Chlorogenic acid, chlorogenic acid] | 830 µg/mL | 1.17 | no significant reversal effect | 1.13 | no significant reversal effect | 19.32% | 2.13 ± 0.52*Δ g | 80.63 ± 5.08 | 106.62 ± 6.88 | not obvious | 1.592 ± 0.704 cm^3 | 3.18% | 2.46 ± 0.72 g | 83.41% | 1.92 ± 0.69 g | 18.64% | 79.24 ± 4.06 | 126.52 ± 11.85 | 
O=C(/C=C/c1ccc(O)cc1)O[C@@H]1C[C@](O)(C(=O)O)C[C@@H](O)[C@H]1O [Coumaroylquinic acid, coumaroylquinic acid] | 862 µg/mL | 1.06 | no significant reversal effect | 1.10 | no significant reversal effect | 15.91% |  | 78.75 ± 6.39 | 98.53 ± 4.98 |  | 1.584 ± 0.424 cm^3 | 3.88% | 2.48 ± 0.55 g | 82.87% | 2.15 ± 0.72 g | 8.90% | 79.11 ± 5.36 | 122.08 ± 14.36 | 2.22 ± 0.26 g
